From ChEMBL document CHEMBL5113426, “Design, synthesis and antitumor activity study of PARP-1/HDAC dual targeting inhibitors” (Bioorg Med Chem Lett, 2022)
Calls of active or inactive are those of the source. The calls are words filed in the database; no cut-off is given here.

What was measured:
[1] = test system: ES-2; test: Antiproliferative activity against human ES2 cells assessed as reduction in cell viability measured after 7 days; assay type: functional, cell-based; settings: ES-2, 168 h
[2] = biological target: Histone deacetylase; test: Inhibition of HDAC derived from human HeLa cell nucleus; assay type: subcellular
[3] = biological target: Poly [ADP-ribose] polymerase 1 (Homo sapiens, UniProt P09874); test: Inhibition of PARP-1 derived from human HeLa cell nucleus; assay type: subcellular
Chain of Poly [ADP-ribose] polymerase 1 (P09874 whole entry): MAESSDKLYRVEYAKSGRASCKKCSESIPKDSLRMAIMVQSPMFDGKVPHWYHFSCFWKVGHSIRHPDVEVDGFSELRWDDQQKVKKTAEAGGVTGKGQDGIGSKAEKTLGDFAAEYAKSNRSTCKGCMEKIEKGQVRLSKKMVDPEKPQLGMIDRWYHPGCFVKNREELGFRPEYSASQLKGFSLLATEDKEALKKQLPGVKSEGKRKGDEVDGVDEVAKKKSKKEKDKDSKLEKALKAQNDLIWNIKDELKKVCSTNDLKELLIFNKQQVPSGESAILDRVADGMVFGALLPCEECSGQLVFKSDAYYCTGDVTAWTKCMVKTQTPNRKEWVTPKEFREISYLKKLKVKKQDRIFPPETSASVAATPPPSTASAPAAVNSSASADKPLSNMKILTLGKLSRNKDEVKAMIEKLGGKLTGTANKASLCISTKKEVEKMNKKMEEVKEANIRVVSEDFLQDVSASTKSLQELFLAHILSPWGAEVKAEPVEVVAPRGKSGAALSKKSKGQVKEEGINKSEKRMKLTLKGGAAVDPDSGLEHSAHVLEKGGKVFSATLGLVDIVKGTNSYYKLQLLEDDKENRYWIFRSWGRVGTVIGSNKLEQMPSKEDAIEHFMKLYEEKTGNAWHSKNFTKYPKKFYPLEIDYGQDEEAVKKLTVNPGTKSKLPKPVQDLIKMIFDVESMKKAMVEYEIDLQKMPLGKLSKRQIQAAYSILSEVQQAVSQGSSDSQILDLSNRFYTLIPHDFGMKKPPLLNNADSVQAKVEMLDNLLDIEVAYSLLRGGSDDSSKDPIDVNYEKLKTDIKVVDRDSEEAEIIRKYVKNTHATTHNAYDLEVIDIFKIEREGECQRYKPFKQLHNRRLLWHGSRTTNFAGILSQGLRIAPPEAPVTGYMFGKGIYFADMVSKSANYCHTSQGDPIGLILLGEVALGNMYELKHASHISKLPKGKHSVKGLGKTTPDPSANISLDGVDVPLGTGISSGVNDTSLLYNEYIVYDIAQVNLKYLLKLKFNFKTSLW

[4] = test system: MDA-MB-231; test: Antiproliferative activity against human MDA-MB-231 cells assessed as reduction in cell viability measured after 7 days; assay type: functional, cell-based; settings: MDA-MB-231, 168 h
[5] = test system: DU-145; test: Antiproliferative activity against human DU-145 cells assessed as reduction in cell viability; assay type: functional, cell-based
[6] = test system: CAPAN-1; test: Antiproliferative activity against human CAPAN-1 cells assessed as reduction in cell viability; assay type: functional, cell-based
[7] = test system: A549; test: Antiproliferative activity against human A549 cells assessed as reduction in cell viability; assay type: functional, cell-based
[8] = test system: HCC1937; test: Antiproliferative activity against human HCC1937 cells assessed as reduction in cell viability; assay type: functional, cell-based
[9] = Cytotoxicity against human EA.hy 926 assessed as inhibition of cell growth; assay type: toxicity, cell-based; settings: EA.hy 926 cells
[10] = biological target: T1, Histone deacetylase 8 (Homo sapiens, UniProt Q9BY41); test: Inhibition of HDAC8 (unknown origin)
T1 sequence (Q9BY41 whole entry): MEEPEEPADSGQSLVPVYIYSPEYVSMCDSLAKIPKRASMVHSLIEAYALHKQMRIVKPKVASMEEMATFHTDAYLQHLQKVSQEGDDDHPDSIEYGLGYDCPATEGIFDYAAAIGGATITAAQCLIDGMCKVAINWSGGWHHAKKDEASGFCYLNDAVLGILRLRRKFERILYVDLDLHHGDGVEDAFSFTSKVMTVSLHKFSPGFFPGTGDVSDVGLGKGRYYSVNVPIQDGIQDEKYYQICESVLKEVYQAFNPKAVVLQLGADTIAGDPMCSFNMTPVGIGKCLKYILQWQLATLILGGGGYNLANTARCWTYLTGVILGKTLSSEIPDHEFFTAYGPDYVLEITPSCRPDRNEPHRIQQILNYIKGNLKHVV

[11] = biological target: Histone deacetylase 2 (Homo sapiens, UniProt Q92769); test: Inhibition of HDAC2 (unknown origin)
Chain of Histone deacetylase 2 (Q92769 whole entry): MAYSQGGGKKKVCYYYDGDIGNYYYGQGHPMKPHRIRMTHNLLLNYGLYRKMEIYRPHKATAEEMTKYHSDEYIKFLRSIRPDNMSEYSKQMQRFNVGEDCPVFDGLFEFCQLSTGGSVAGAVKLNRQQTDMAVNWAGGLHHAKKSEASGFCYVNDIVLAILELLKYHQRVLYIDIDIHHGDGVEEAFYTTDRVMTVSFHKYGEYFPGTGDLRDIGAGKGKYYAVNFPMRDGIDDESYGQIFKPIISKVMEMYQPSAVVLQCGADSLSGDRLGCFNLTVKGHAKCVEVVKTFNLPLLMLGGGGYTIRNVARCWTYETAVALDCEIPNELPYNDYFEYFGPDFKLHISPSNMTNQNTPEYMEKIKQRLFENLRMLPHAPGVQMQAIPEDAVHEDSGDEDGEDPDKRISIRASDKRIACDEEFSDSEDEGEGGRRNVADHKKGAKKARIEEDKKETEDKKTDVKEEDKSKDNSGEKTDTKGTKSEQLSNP

[12] = biological target: Vascular endothelial growth factor receptor 2 (Homo sapiens, UniProt P35968); test: Inhibition of VEGFR2 (unknown origin)
Chain of Vascular endothelial growth factor receptor 2 (P35968 whole entry): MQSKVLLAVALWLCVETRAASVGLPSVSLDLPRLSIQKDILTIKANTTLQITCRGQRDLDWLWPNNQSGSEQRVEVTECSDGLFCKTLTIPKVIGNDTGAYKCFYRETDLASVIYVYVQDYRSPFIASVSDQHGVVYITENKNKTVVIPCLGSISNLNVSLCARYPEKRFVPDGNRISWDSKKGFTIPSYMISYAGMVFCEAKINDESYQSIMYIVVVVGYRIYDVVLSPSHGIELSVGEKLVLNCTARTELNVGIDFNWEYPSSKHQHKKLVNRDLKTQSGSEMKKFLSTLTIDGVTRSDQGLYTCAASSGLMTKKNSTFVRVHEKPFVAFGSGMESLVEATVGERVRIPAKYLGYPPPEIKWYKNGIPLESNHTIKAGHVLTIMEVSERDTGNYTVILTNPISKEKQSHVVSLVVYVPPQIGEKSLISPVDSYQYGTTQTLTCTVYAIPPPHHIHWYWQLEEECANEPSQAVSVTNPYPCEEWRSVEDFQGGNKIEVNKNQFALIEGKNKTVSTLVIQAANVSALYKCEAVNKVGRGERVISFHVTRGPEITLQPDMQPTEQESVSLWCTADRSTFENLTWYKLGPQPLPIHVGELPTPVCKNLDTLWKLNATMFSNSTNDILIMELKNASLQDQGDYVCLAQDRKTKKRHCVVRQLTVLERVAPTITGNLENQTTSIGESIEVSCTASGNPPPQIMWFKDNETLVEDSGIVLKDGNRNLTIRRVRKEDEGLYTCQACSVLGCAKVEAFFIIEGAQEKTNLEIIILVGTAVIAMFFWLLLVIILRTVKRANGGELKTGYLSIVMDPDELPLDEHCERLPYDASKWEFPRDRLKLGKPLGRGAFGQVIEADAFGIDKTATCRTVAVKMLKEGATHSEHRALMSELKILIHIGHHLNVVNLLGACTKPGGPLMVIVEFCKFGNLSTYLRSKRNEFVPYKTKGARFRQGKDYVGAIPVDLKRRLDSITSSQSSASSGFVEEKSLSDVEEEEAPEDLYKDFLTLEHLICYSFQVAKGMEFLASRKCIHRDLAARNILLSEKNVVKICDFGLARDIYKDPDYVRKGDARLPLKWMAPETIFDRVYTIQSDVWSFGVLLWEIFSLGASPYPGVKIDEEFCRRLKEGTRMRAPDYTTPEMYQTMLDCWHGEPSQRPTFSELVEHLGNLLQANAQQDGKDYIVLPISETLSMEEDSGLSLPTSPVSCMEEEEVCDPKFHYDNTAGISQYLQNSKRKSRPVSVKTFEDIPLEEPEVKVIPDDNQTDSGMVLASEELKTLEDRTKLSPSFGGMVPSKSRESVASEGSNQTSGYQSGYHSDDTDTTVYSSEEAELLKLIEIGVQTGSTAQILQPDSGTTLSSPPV

[13] = biological target: T2, Protein deacetylase HDAC6 (Homo sapiens, UniProt Q9UBN7); test: Inhibition of HDAC6 (unknown origin)
T2 sequence (Q9UBN7 whole entry): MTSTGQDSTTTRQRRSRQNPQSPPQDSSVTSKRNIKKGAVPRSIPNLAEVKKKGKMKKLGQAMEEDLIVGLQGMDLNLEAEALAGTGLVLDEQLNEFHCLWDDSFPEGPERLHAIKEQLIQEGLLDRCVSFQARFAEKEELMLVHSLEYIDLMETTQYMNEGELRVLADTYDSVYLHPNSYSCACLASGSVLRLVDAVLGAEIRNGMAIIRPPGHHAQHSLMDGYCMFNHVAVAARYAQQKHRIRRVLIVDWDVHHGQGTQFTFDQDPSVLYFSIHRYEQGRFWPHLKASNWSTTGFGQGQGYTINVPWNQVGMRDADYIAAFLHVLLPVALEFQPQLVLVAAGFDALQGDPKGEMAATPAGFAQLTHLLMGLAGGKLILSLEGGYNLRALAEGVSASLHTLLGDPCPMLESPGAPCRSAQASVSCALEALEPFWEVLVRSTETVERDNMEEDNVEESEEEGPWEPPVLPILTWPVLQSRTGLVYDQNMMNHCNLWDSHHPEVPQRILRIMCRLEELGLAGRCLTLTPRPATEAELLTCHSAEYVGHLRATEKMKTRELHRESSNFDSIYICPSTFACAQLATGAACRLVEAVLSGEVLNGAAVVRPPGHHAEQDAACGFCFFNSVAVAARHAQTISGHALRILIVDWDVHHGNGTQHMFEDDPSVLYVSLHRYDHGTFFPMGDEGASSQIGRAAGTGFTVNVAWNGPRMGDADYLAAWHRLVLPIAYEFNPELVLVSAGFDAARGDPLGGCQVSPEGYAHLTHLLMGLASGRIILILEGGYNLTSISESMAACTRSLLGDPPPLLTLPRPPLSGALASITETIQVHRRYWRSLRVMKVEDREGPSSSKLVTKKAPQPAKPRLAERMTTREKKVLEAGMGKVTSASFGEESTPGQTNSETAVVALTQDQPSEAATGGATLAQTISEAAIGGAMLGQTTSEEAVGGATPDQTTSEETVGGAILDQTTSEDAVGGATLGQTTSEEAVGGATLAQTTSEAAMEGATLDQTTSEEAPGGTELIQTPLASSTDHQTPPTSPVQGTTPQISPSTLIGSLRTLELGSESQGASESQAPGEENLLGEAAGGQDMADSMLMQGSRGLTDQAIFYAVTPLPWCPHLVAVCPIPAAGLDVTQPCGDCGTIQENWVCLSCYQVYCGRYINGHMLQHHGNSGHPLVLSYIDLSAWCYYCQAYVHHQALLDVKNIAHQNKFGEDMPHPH

[14] = biological target: Histone deacetylase 4 (Homo sapiens, UniProt P56524); test: Inhibition of HDAC4 (unknown origin)
Chain of Histone deacetylase 4 (P56524 whole entry): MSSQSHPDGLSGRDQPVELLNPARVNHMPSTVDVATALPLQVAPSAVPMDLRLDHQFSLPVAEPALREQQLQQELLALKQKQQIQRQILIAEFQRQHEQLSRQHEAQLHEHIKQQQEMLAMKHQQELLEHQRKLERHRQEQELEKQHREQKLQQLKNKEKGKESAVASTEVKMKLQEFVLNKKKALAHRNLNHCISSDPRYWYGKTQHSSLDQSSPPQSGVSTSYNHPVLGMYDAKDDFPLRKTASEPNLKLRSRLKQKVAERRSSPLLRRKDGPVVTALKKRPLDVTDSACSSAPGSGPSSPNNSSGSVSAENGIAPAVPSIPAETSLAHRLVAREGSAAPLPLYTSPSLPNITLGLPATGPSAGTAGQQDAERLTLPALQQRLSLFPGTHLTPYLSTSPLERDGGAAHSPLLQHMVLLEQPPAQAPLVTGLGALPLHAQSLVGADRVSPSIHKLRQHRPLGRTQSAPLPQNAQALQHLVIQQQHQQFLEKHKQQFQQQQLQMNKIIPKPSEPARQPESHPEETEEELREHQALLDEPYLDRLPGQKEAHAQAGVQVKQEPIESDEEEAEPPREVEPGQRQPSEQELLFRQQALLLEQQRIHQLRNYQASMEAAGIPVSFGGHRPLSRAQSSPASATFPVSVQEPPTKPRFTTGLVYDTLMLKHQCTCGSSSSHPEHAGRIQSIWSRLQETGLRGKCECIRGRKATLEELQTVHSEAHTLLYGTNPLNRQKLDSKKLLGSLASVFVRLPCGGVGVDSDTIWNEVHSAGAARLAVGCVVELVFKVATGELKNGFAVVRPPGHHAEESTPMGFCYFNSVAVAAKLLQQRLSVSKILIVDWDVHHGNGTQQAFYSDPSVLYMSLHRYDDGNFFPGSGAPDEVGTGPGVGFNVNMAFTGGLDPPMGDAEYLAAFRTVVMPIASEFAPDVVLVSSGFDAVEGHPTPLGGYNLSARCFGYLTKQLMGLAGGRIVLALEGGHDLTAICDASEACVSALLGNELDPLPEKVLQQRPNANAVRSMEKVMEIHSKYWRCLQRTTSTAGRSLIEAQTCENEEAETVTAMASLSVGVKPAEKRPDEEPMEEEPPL

[15] = biological target: Histone deacetylase 3 (Homo sapiens, UniProt O15379); test: Inhibition of HDAC3 (unknown origin)
Chain of Histone deacetylase 3 (O15379 whole entry): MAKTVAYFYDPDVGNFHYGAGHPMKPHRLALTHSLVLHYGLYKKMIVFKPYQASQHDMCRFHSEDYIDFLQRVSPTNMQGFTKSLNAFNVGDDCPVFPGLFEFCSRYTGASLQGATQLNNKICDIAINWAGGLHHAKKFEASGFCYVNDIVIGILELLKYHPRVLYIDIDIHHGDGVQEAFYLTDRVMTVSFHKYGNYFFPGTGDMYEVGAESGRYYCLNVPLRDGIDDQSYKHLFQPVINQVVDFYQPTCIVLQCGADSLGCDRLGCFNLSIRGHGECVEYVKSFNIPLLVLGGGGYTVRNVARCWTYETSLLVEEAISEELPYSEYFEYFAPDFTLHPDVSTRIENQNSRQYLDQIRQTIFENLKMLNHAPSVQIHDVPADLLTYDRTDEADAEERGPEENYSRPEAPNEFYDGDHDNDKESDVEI

[16] = test system: ES-2; test: Upregulation of Ac-HH4 expression in human ES2 cells at 10 uM by Western blot analysis; assay type: functional, cell-based
[17] = test system: ES-2; test: Upregulation of Ac-tubulin expression in human ES2 cells at 0.3 uM by Western blot analysis; assay type: functional, cell-based
[18] = test system: HUVEC; test: Antiangiogenesis activity in HUVEC cells assessed as damage in vascular tube structure at 5 to 10 uM by tube formation assay; assay type: functional, cell-based; settings: Homo sapiens, dose 5-10 µM
[19] = test system: ES-2; test: Upregulation of Ac-HH3 expression in human ES2 cells at 10 uM by Western blot analysis; assay type: functional, cell-based
[20] = test system: MDA-MB-436; test: Induction of intracellular ROS generation in human MDA-MB-436 cells assessed as increase in ROS level by DCFH-DA staining based microscopic analysis; assay type: functional, cell-based; settings: dose 1.25-5 µM, DDE = dose-dependent effect
[21] = test system: MDA-MB-231; test: Inhibition of cell migration in human MDA-MB-231 cells at 3 to 10 uM measured upto 48 hrs by wound healing assay; assay type: functional, cell-based; settings: dose 3-10 µM

Row | IC50 [2] [µM] | IC50 [3] [nM] | IC50 [4] [nM] | IC50 [5] [µM] | IC50 [7] [µM] | IC50 [8] [nM] | Structure (SMILES) | IC50 [1] [nM] | IC50 [6] [µM] | other results
1 | > 30 | 128 | > 30000 |  |  |  | NC(=O)c1cccc2cn(-c3ccc(OCCCCCCC(=O)NO)cc3)nc12 | 1570 |  | 
2 | > 30 | 285 | 4280 |  |  |  | NC(=O)c1cccc2cn(-c3ccc(OCCCCCC(=O)NO)cc3)nc12 | 1680 |  | 
3 | > 30 | 102 | 2410 |  |  |  | NC(=O)c1cccc2cn(-c3ccc(OCCCCC(=O)NO)cc3)nc12 | 3640 |  | 
4 | 5.5 | 20.2 | > 30000 |  |  |  | NC(=O)c1cccc2[nH]c(-c3ccc(OCCCCCC(=O)NO)cc3)nc12 | > 30000 |  | 
5 | > 30 | 12.1 | > 30000 |  |  |  | NC(=O)c1cccc2[nH]c(-c3ccc(OCCCCC(=O)NO)cc3)nc12 | > 30000 |  | 
6 | > 30 | 47.5 | > 30000 |  |  |  | NC(=O)c1cccc2[nH]c(-c3ccc(OCCCCCCCC(=O)NO)cc3)nc12 | > 30000 |  | 
7 | 7.7 | 31 | 1080 | 8.56 | 16.4 | 4050 | NC(=O)c1ccc(COc2ccc(-c3nc4c(C(N)=O)cccc4[nH]3)cc2)cc1 | 1160 | 26.4 | 
8 | 7.9 | 27.4 | 690 | 4.7 | 7.72 | 2880 | NC(=O)/C=C/c1ccc(COc2ccc(-c3nc4c(C(N)=O)cccc4[nH]3)cc2)cc1 | 1370 | 5.63 | 
9 |  |  | 690 | 11.4 | 5.89 | > 30000 | O=C(c1cc(Cc2n[nH]c(=O)c3ccccc23)ccc1F)N1CCN(C(=O)C2CC2)CC1 [OLAPARIB] | 2050 | 1.67 | 
10 | 10.6 | 227 | 340 | 3.59 | 6.98 | 1920 | NC(=O)/C=C/c1ccc(COc2ccc(-n3cc4cccc(C(N)=O)c4n3)cc2)cc1 | 420 | 6.55 | IC50 [9]: 26 µM; IC50 [10]: > 100 µM; IC50 [11]: 31 µM; IC50 [12]: 3.4 nM; IC50 [13]: 510 nM; IC50 [14]: > 100 µM; IC50 [15]: 2.19 µM
11 | > 30 | 14.2 | > 30000 |  |  |  | NC(=O)c1cccc2[nH]c(-c3ccc(OCCCC(=O)NO)cc3)nc12 | > 30000 |  | 
12 | 13.7 | 245 | > 30000 |  |  |  | NC(=O)c1cccc2cn(-c3ccc(OCCCCCCCC(=O)NO)cc3)nc12 | 6150 |  | 
13 | > 30 | 102 | 9930 |  |  |  | NC(=O)c1cccc2cn(-c3ccc(OCCCC(=O)NO)cc3)nc12 | 12700 |  | 
14 | 10.8 | 68.9 | 350 | 3.38 | 5.67 | 2850 | NC(=O)c1ccc(COc2ccc(-n3cc4cccc(C(N)=O)c4n3)cc2)cc1 | 1160 | 4.53 | Activity [16]: Active; Activity [17]: Active; IC50 [9]: 5.41 µM; IC50 [10]: > 100 µM; IC50 [11]: 42.1 µM; Activity [18]: Active; IC50 [12]: 5.92 nM; Activity [19]: Active; Activity [20]: Dde; IC50 [13]: 540 nM; IC50 [14]: > 100 µM; inhibition [21]: Active; IC50 [15]: 7.22 µM
15 | 7 | 38 | > 30000 |  |  |  | NC(=O)c1cccc2[nH]c(-c3ccc(OCCCCCCC(=O)NO)cc3)nc12 | > 30000 |  | 
